Measurements: patent US6413947B1, “Anilide derivative, production and use thereof” (Takeda Chemical Industries, Ltd., priority 1997, dated 2002)

Assays:
HIV-1 BA-L [1] = test: Inhibitory effect on HIV-1 infection to human PBMC; type: cell-based; conditions: human PBMC stimulated with PHA and IL-2, 7 days
Procedure: From normal person human peripheral blood mononuclear cells (PBMC) were separated, and the cells were stimulated with 10 μg/ml of PHA (Phytohemaglutinin) and 20 U/ml of interleukin-2 (IL-2) for 3 days. The cells were suspended in RPMI-1640 medium containing 20% serum to prepare 1×10^6/ml suspension. To the suspension were infected HIV-1 BA-L cells (20 ng as an amount of p24 antigen), and viruses were absorbed at 37° C. for 2 hours. The cells were washed and suspended in RPMI-1640 medium containing 20% serum and IL-2 20 U/ml to prepare 1×10^5/ml suspension. To the PBMC suspension was added the same amount of a solution which contains 2.0 μM of Test Compound 96 or 0.32 μM of Test Compound 248, and the cells were cultivated at 37° C. for 7 days in carbon dioxide gas incubator. The amount of p24 antigen in supernatant of the cultivated medium was determined by enzyme-linked immunosorbent assay (ELISA) and defined as degree of HIV-1 infection.

HIV-1 BA-L [2] = test: Inhibitory effect on HIV-1 infection to MAGI-CCR5 cell; type: cell-based; conditions: 2 days
Procedure: The plasmid where β-galactosidase gene was ligated downstream of HIV-1 LTR was introduced into CD4 positive HeLa cell, to which human CCR5 was further introduced to obtain transformant MAGI-CCR5. By using said transformant MAGI-CCR5, degree of HIV-1 infection was calculated from β-galactosidase activity (blue color due to decomposition of 5-bromo-4-chloro-3-indolyl-β-D-galactopyranoside). Specifically, MAGI-CCR5 cells were suspended in DMEM medium containing 10% serum to prepare 5×10^4 cells/ml suspension. To each well of 96 well plate was inoculated 200 μl of the suspension, and the cells were cultivated at 37° C. overnight. The medium was removed by means of suction, and to the residue was added 100 μl of the above medium containing 1.6 μM of Test Compound 96 or 0.064 μM of Test Compound 248 and 100 μl of the above medium containing 300PFU of HIV-1 BA-L cells. The cells were cultivated at 37° C. for 2 days. The medium was removed by means of suction. To the residue was added 200 μl of cell fixative (PBS containing 1% formaldehyde and 0.2% glutaraldehyde), and the mixture was allowed to stand at room temperature for 5 minutes and washed twice with PBS. […] The number of blue cells was counted by microscope and defined as the number of cells infected with HIV-1.

human CCR5 = target: T1, human CCR5 (Homo sapiens, UniProt P51681); test: CCR5 antagonistic activity ([125I]-RANTES binding to CHO/CCR5 cells); conditions: Test Compound 1 μM, 100 pM [125I]-RANTES, room temperature 30 minutes, read-out: Inhibition Rate (%) to CCR5 binding
T1 construct: expressed in transfected cells; host or cells: CHO-K1 cells, geneticin-resistant clone CHO/CCR5
T1 sequence (P51681 whole entry): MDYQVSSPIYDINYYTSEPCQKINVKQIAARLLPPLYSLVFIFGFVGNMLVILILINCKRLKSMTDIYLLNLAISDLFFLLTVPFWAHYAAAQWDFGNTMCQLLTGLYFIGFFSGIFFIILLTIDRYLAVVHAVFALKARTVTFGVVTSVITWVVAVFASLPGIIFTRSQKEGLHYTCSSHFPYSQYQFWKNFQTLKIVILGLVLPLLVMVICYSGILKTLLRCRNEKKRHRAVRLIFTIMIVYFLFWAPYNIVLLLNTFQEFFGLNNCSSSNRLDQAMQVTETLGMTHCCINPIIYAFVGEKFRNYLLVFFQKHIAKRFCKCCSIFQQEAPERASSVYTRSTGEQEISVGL
Procedure: Cloning of CCR5 gene was carried out by PCR (polymerase chain reaction) from human spleen cDNA. With using 0.5 ng of spleen cDNA (Toyobo, QUICK-Clone cDNA) as template, PCR was performed in DNA Thermal Cycler 480 (Perkin-Elmer) (reaction conditions: 30 cycles of 95° C. for 1 minute, 60° C. for 1 minute, and 75° C. for 5 minutes) by adding primer set, 5′-CAGGATCCGATG […]-3′ (25 pmol) and 5′-TCTAGATCACAAGCC CACAGATATTTCCTGCTCC-3′ (25 pmol), which were designed referring to nucleotide sequence of CCR5 gene reported by Samson et al. (Biochemistry, 35(11), 3362-3367 (1996)) and by using TaKaRa EX Taq (Takara Shuzo). The resultant PCR product was subjected to agarose gel electrophoresis to collect about 1.0 kb DNA fragment, which was subjected to Original TA Cloning Kit (Funakoshi) to carry out cloning of CCR5 gene.
The plasmid obtained in the above (1) was digested with restriction enzymes XbaI (Takara Shuzo) and BamHI (Takara Shuzo) and subjected to agarose gel electrophoresis to collect about 1.0 kb DNA fragment. The DNA fragment was mixed with plasmid pcDNA3.1 (Funakoshi) for expression in animal cells, said plasmid being digested with XbaI and BamHI, and they were ligated with DNA Ligation Kit Ver.2 (Takara Shuzo). The resulting plasmid was subjected to transformation of competent cell of E. coli JM109 (Takara Shuzo) to obtain plasmid pCKR5.
CHO-K1 cells were grown in 750 ml of tissue culture flask (Becton Dickinson) using Ham's F12 medium (Nihon Pharmaceutical) containing 10% fetal calf serum (Life Tech Oriental) and took off with 0.5 g/L trypsin-0.2 g/L EDTA (Life Tech Oriental). The cells were washed with PBS (Life Tech Oriental), centrifuged (1000 rpm, 5 minutes), and suspended in PBS. With using Gene Pulser (Bio-Rad Laboratories), DNA was introduced into the cells under the conditions shown below. That is, to the cuvette of 0.4 cm gap were added 8×10^6 cells and 10 μg of plasmid pCKR5 for expression of human CCR5, and electroporation was carried out under 0.25 kV of voltage and 960 μF of capacitance. The cells were transferred into Ham's F12 medium (Nihon Pharmaceutical) containing 10% fetal calf serum, and cultivated for 24 hours. The cells were again took off and centrifuged, and suspended in Ham's F12 medium (Nihon Pharmaceutical) containing 10% fetal calf serum and 500 μg/ml of geneticin (Life Tech Oriental). The suspension was diluted to give 1 cells/ml of the suspension, which was inoculated on 96 well plate (Becton Dickinson) to give geneticin resistant cells. The resulting geneticin resistant cells were cultivated in 96 well plate (Becton Dickinson), and cells expressing CCR5 were selected from the geneticin resistant cells. That is, in assay buffer (Ham's F12 medium containing 0.5% BSA and 20 mM HEPES (Wako Pure Chemical, pH7.2) to which was added 200 pM of [^125I]-RANTES (Amersham) as ligand, binding reaction was carried out at room temperature for 40 minutes, and the buffer was washed with cooled PBS. To the buffer was added 50 μl/well of 1M NaOH, and the mixture was stirred. Radioactivity was determined with γ-counter to select CHO/CCR5 cells which specifically bind to the ligand.
The CHO/CCR5 were inoculated on 96 well microplate (5×10^4 cells/well) and cultivated for 24 hours. […] Radio-activity was determined with Top-Count Micro Scintillation Counter (Packard Instrument, Inc.). […]

Row | SMILES | inhibition on HIV-1 infection (p24 antigen in supernatant, ELISA) (HIV-1 BA-L [1]; same amount of a solution containing 2.0 μM of Test Compound added) [%] | inhibition on HIV-1 infection (number of blue cells) (HIV-1 BA-L [2]; 100 μl medium containing 1.6 μM of Test Compound plus 100 μl medium with 300PFU HIV-1 BA-L) [%] | inhibition at 1 µM (human CCR5) [%] | inhibition on HIV-1 infection (p24 antigen in supernatant, ELISA) (HIV-1 BA-L [1]; same amount of a solution containing 0.32 μM of Test Compound added) [%] | inhibition on HIV-1 infection (number of blue cells) (HIV-1 BA-L [2]; 100 μl medium containing 0.064 μM of Test Compound plus 100 μl medium with 300PFU HIV-1 BA-L) [%]
1 | Cc1ccc(-c2ccc3c(c2)C=C(C(=O)Nc2ccc(C[N+]4(C)CCCCC4)cc2)CCO3)cc1 [Compound 96, 1—(N-(7—(4-methylphenyl)-2,3-dihydro-1-benzoxepin-4-carbonyl)-4-aminobenzyl)-1-methylpiperidinium iodide] | 96 | 92 |  |  | 
2 | Cc1ccc(-c2ccc3c(c2)C=C(C(=O)Nc2ccc(C[N+](C)(C)C4CCOCC4)cc2)CCC3)cc1 [Compound 248, N,N-dimethyl-N-(4-(((2-(4-methylphenyl)-6,7-dihydro-5H-benzocyclohepten-8-yl)carbonyl)amino)benzyl)-N-(4-tetrahydropyranyl)ammonium chloride] |  |  | 99 | 74 | 100
